The values that follow come from PubChem BioAssay AID1996.

Values after ≈ are worked out from the molar mass of the structure shown.

A word on the solubility (kinetic): it is solubility judged after dilution from a stock solution rather than from solid.

For this series the following is noted: buffer; pH 7.4; 200.0 µM.
`Nc1ccccc1-n1cccc1` registered a kinetic solubility of 14.5 µg/mL (≈ 91.7 µM).
The figure for `COC(=O)CC1C(=O)NCCN1C(=O)c1ccc(Cl)cc1` (stereo not drawn) is greater than 46.6 µg/mL; for `Cc1ccc(OCCC(=O)OCC(=O)Nc2cc(C)cc(C)c2)cc1` it is 4.3 µg/mL (≈ 12.6 µM); for `O=C(Cc1ccc([N+](=O)[O-])cc1)Nc1ccc(Cl)cc1` it is 4.5 µg/mL (≈ 15.5 µM).
In turn, `CN(C)C(CNC(=O)c1cc2ccccc2o1)c1ccco1` (stereo not drawn) registered a solubility (kinetic) greater than 44.8 µg/mL.
In the case of `Cc1ccc(NC(=O)C2CCCN(c3cnccn3)C2)c(C)c1` (stereo not drawn), the solubility (kinetic) is greater than 46.6 µg/mL.
Then `CCOP(=O)(OCC)C(O)c1cccnc1` (stereo not drawn), with greater than 36.8 µg/mL.
Then `CC(NC(=O)C(=O)NCc1cccs1)c1ccccc1` (stereo not drawn), with 2.5 µg/mL (≈ 8.67 µM); and `Cc1cc(OCCN2CCOCC2)ccc1C(C)C.Cl`, with 34.2 µg/mL; and `CC1CCCN(S(=O)(=O)c2ccc([N+](=O)[O-])cc2)C1` (stereo not drawn), with 2.9 µg/mL (≈ 10.2 µM).
Then `c1csc(-c2nc(N3CCOCC3)c3ccccc3n2)c1`, with 2 µg/mL (≈ 6.73 µM).
With `Cc1cccc(N2C(=O)c3cccc4cccc(c34)C2=O)c1`, the kinetic solubility came to 1.5 µg/mL (≈ 5.22 µM). The solubility kinetic values of the last two compounds are within 1.5-fold of each other.
Then `CCSc1ccccc1-c1nc(-c2ccncc2)no1`, with 5.1 µg/mL (≈ 18 µM); and `Cc1cccn2c(=O)cc(COC(=O)C(C)Oc3ccccc3)nc12` (stereo not drawn), with 46.8 µg/mL (≈ 138 µM); and `O=c1ccn(CCc2c[nH]c3ccccc23)c2c1CCCC2`, with greater than 43.9 µg/mL.
Consider `O=C(O)c1ccc(NS(=O)(=O)c2cc(Cl)sc2Cl)cc1`, for which the kinetic solubility is greater than 52.8 µg/mL.
The figure for `CCCCNC(=O)NC(C(N)=O)P(=O)(OCC)OCC` (stereo not drawn) is greater than 46.4 µg/mL.
`CCN(CC)CCOC(=O)C(O)(c1ccccc1)c1ccccc1.Cl` returned a solubility (kinetic) greater than 54.6 µg/mL.
The figure for `Cc1ccc(CN(C)c2nc(-c3cccnc3)nc3ccccc23)o1` is 15.5 µg/mL (≈ 46.9 µM); for `Cc1ccc(SCCSc2nc(C)cc(=O)[nH]2)cc1` it is 2.1 µg/mL (≈ 7.18 µM).
`CCc1ccccc1NC(=S)N(CCN(C)C)C(C)c1ccco1` (stereo not drawn) came in with a solubility (kinetic) of 50.5 µg/mL (≈ 146 µM).
`Cl.O=C(CCCN1CCOC(c2ccccc2)C1)c1ccc(F)cc1` (stereo not drawn): the solubility (kinetic) came to 50.3 µg/mL.
In the case of `Nc1c(Cl)cc(Cl)cc1C(=O)OCC(=O)N1CCOCC1`, the solubility (kinetic) is greater than 50 µg/mL.
The figure for `COc1cccc(OC)c1C(=O)NC(=O)Nc1c(F)cc(F)cc1F` is 5.4 µg/mL (≈ 15.2 µM); for `COc1ccc2oc(=O)c(C(=O)NC3CCCCCC3)cc2c1` it is 2.6 µg/mL (≈ 8.24 µM).
Then `O=C(Cc1ccccc1)Nc1nccs1`, with greater than 32.7 µg/mL; and `CC(=O)c1c(C)[nH]c(C(=O)O)c1C`, with greater than 27.2 µg/mL.
With `CCOc1ccc2nc(NC(=O)C3CCCO3)sc2c1` (stereo not drawn), the solubility (kinetic) is greater than 43.9 µg/mL.
Then `CC(=O)Nc1ccc(NC(=O)CC(c2ccccc2)c2ccccc2)cc1`, with 2.1 µg/mL (≈ 5.86 µM); and `CCCC1(CCC)NC(=O)N(CC(=O)Nc2ccc(Cl)c(S(=O)(=O)N3CCOCC3)c2)C1=O`, with 73.2 µg/mL (≈ 146 µM).
The figure for `CCS(=O)(=O)N1CCC(c2nc3ccccc3[nH]2)CC1` is 40 µg/mL (≈ 136 µM).
The compound `Cc1ccc(Nc2c(-c3ccccc3)nc3cnccn23)cc1` gave a solubility (kinetic) of 1.1 µg/mL (≈ 3.66 µM).
Then `COc1cc(OC)cc(C(=O)NC2CCSc3ccccc32)c1` (stereo not drawn), with 3.9 µg/mL (≈ 11.8 µM); and `Cc1ccc(C2(c3ccc(C)cc3)NC(=O)N(CC(=O)NCCCN3CCCC3=O)C2=O)cc1`, with greater than 69.4 µg/mL; and `N#CCCN=C(NS(=O)(=O)c1ccccc1)c1ccccc1`, with greater than 47 µg/mL.
Consider `O=C(CSc1nnc(Nc2ccccc2F)s1)NCC1CCCO1` (stereo not drawn), for which the solubility (kinetic) was greater than 55.3 µg/mL.
The figure for `O=C(CCCN1C(=O)C2CC=CCC2C1=O)Nc1ccccc1F` (stereo not drawn) is greater than 49.6 µg/mL.
As for `N#CCCN(C(=O)COC(=O)CSc1ccc(Cl)cc1)c1ccccc1`, the kinetic solubility is 56.9 µg/mL (≈ 146 µM).
The figure for `CN1CC(=O)Nc2ccc(Br)cc2C1=O` is greater than 40.4 µg/mL; for `Cc1nnc(SCC(=O)Nc2nccs2)o1` it is greater than 38.4 µg/mL.
The figure for `O=C1C2C3CCC(CC3)C2C(=O)N1c1ccccc1` (stereo not drawn) is 11.6 µg/mL (≈ 45.4 µM); for `CCN(CC)CCn1c(N)nc2ccccc21.Cl` it is 44.7 µg/mL.
The figure for `Cc1ccc(NC2c3ccccc3C(=O)N2c2cccnc2)cc1` (stereo not drawn) is 40.5 µg/mL (≈ 128 µM); for `Nc1ccc(C(=O)[O-])cc1.O.[Na+]` it is greater than 26.6 µg/mL.
In the case of `CCCN(CC(=O)Nc1ccccc1C)C(=O)c1cc(C)oc1C`, the kinetic solubility is greater than 49.3 µg/mL.
Turning to `COc1ccc(Br)cc1CN1CCSCC1`, the kinetic solubility came out at 29.3 µg/mL (≈ 96.9 µM).
The figure for `CCC1CCCCN1C(=O)CCCc1ccccc1` (stereo not drawn) is 33.2 µg/mL (≈ 128 µM); for `CNc1ccc(OC)cc1-n1cnc(-c2ccc([N+](=O)[O-])cc2)c1` it is 0.6 µg/mL (≈ 1.85 µM).
As to `CCCCN(CCCC)CCCOC(=O)c1ccc(N)cc1`, the kinetic solubility was greater than 46 µg/mL.
The figure for `CCS(=O)(=O)c1ccc(O)c(NC(=O)/C=C/c2ccccc2)c1` is greater than 49.7 µg/mL; for `COc1ccc(CCNS(=O)(=O)c2cccc([N+](=O)[O-])c2)cc1` it is 42.8 µg/mL (≈ 127 µM); for `CNC(=O)COC(=O)c1cc2c(s1)CCCC2` it is greater than 38 µg/mL.
Then `CN1CCN(c2c(F)cc([N+](=O)[O-])c(N)c2Br)CC1`, with greater than 50 µg/mL.
